Test results published in patent US8193203B2, “Bicyclic compounds having activity at the CXCR4 receptor” (Allergan, Inc., priority 2008, dated 2012).

Target: T1, human CXCR4 receptor (Homo sapiens, UniProt P61073)
T1 construct: expressed in transfected cells
Test: Measurement of intracellular Ca+2 responses (FLIPR), antagonism of the SDF-1α response
Type: cell-based
Settings: for IC50: HEK-Gqi5 cells stably expressing human CXCR4, Fluo-4 FLIPR, antagonism of SDF-1α 1.9 nM (EC65); for CXCR4 (% Inh): percent antagonism of SDF-1α 1.9 nM (EC65) response, HEK-Gqi5 human CXCR4 cells, value in brackets
Method: Measurement of Intracellular Ca^+2 Responses for CXCR4 Compounds
HEK-Gqi5 cells stably expressing the human CXCR4 receptor were utilized for these studies. The growth media for the CXCR4 receptor expressing cell line was DMEM high glucose medium supplemented with 10% fetal bovine serum (FBS), 1% antibiotic-antimycotic, 50 ug/ml hygromycin B, and 400 μg/ml geneticin. Ten thousand cells per well were plated into 384-well poly-D-lysine coated plates one day prior to use. On the day of the experiment, the cells were washed twice with Hank's Balanced Salt Solution supplemented with 20 mM hepes (HBSS/hepes buffer). The cells were then dye loaded with 2 uM Fluo-4 diluted in the HBSS/Hepes buffer and incubated at 37° C. for 40 minutes. Extracellular dye was removed by washing the cell plates four times prior to placing the plates in the FLIPR (Fluorometric Imaging Plate Reader, Molecular Devices). Ligands were diluted in HBSS/Hepes buffer and prepared in 384-well microplates. The positive control, stromal-cell derived factor-1 (SDF-1α), was diluted in HBSS/Hepes buffer with 4 mg/ml fatty acid free bovine serum albumin. Two drug additions were made by the FLIPR. The first drug addition was the test drug in concentrations ranging from 2.44 nM to 40,000 nM. After this addition, fluorescent measurements were taken. Any calcium release in response to this drug addition represents agonist activity of the compounds. The second drug addition was SDF-1α at a final concentration of 1.9 nM (EC65). Fluorescence measurements were also taken after this second drug addition and were used to determine the ability of the test compounds to antagonize the SDF-1α response. Results were expressed as EC50 and efficacy values, as well as IC50 and percent antagonism values. As controls, SDF-1α (CXCR4 agonist) and AMD3100 (CXCR4 antagonist) dose-response curves were also determined in each study.

T1 sequence (P61073 whole entry): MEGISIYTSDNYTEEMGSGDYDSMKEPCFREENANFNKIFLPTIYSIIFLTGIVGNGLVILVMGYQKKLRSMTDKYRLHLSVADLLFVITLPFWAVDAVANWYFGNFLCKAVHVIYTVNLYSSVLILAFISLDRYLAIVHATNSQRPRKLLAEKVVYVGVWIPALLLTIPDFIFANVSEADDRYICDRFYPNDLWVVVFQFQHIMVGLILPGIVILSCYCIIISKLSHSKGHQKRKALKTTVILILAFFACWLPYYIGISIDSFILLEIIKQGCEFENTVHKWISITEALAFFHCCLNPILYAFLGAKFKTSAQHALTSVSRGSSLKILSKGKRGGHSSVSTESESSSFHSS

IC50 (values given in μM) [µM] | CXCR4 (% Inh) [%] | IC50 (values in nM) [µM] | IC50 (unit of the source corrected, heading: CXCR4 IC50, values given in μM) [µM] | Structure (SMILES)
1.2 | 84 |  |  | COc1cccc(N(C)C)c1CN1CCC(Nc2nc(N3CCN(C)CC3)nc3ccccc23)CC1 [Compound 218, N-(1-(2-(Dimethylamino)-6-methoxybenzyl)piperidin-4-yl)-2-(4-methyl-piperazin-1-yl)quinazolin-4-amine]
2 | 80 |  |  | CCCCNc1nc(NC2CCN(Cc3c(OC)cccc3N(C)C)CC2)c2ccccc2n1 [Compound 91, N2-Butyl-N4-(1-(2-(dimethylamino)-6-methoxybenzyl)piperidin-4-yl)quinazoline-2,4-diamine]
 | 95 | 0.574 |  | COc1cccc(N(C)C)c1CN1CCC(Nc2nc(NCc3ccccn3)nc3ccccc23)CC1 [Compound 84, N4-(1-(2-(Dimethylamino)-6-methoxybenzyl)piperidin-4-yl)-N2-(pyridin-2-ylmethyl)quinazoline-2,4-diamine]
 | 100 | 0.611 |  | COc1cccc(N(C)C)c1CN1CCC(Nc2nc(NCCCO)nc3ccccc23)CC1 [Compound 99, 3-(4-(1-(2-(Dimethylamino)-6-methoxybenzyl)piperidin-4-ylamino)quinazolin-2-ylamino)propan-1-ol]
 | 99 | 0.129 |  | COc1cccc(N(C)C)c1CN1CCC(Nc2nc(NC[C@@H]3CCNC3)nc3ccccc23)CC1 [Compound 113, (R)—N-4-(1-(2-(Dimethylamino)-6-methoxybenzyl)piperidin-4-yl)-N2-(pyrrolidin-3-ylmethyl)quinazoline-2,4-diamine]
 | 96 | 0.81 |  | COCCCNc1nc(NC2CCN(Cc3c(OC)cccc3N(C)C)CC2)c2ccccc2n1 [Compound 87, N4-(1-(2-(Dimethylamino)-6-methoxybenzyl)piperidin-4-yl)-N2-(3-methoxypropyl)quinazoline-2,4-diamine]
4.9 | 93 |  |  | COc1cccc(N(C)C)c1CN1CCC(Nc2nc(N3CCCC(C(N)=O)C3)nc3ccccc23)CC1 (centres unmarked) [Compound 85, 1-(4-(1-(2-(Dimethylamino)-6-methoxybenzyl)piperidin-4-ylamino)quinazolin-2-yl)piperidine-3-carboxamide]
 | 99 | 0.069 |  | COc1cc2nc(NCCCO)nc(NC3CCN(Cc4c(OCCN(C)C)cccc4N(C)C)CC3)c2cc1OC [Compound 207, 3-({4-[(1-{2-(Dimethylamino)-6-[2-(dimethylamino)ethoxy]benzyl}piperidin-4-yl)amino]-6,7-dimethoxyquinazolin-2-yl}amino)propan-1-ol]
 | 95 | 0.041 |  | COc1cccc(N(C)C)c1CN1CCC(Nc2nc(NCCCN(C)C)nc3ccccc23)CC1 [Compound 68, N4-(1-(2-(Dimethylamino)-6-methoxybenzyl)piperidin-4-yl)-N2-(3-(dimethylamino)propyl)quinazoline-2,4-diamine]
 | 97 | 0.77 |  | COc1cccc(N(C)C)c1CN1CCCC(Nc2nc(NCCCN(C)C)nc3ccccc23)CC1 (centres unmarked) [Compound 174, N˜4˜-{1-[2-(Dimethylamino)-6-methoxybenzyl]azepan-4-yl}-N˜2˜-[3-(dimethylamino)propyl]quinazoline-2,4-diamine]
1.2 | 96 |  |  | COc1cccc(N(C)C)c1CN1CCC(Nc2nc(NCCCN(C)C)nc3ccc(Br)cc23)CC1 [Compound 146, 6-Bromo-N˜4˜-{1-[2-(dimethylamino)-6-methoxybenzyl]piperidin-4-yl}-N˜2˜-[3-(dimethylamino)propyl]quinazoline-2,4-diamine]
 | 99 | 0.073 |  | COc1cc2nc(NCc3cn(C)cn3)nc(NC3CCN(Cc4c(OCCN(C)C)cccc4N(C)C)CC3)c2cc1OC [Compound 215, N˜4˜-(1-{2-(Dimethylamino)-6-[2-(dimethylamino)ethoxy]benzyl}piperidin-4-yl)-6,7-dimethoxy-N˜2˜-[(1-methyl-1H-imidazol-4-yl)methyl]quinazoline-2,4-diamine]
 | 88 | 0.614 |  | COc1cccc(N(C)C)c1CN1CCC(Nc2nc(NCCCNC(=O)OC(C)(C)C)nc3ccccc23)CC1 [Compound 225, tert-Butyl-3-(4-(1-(2-(dimethylamino)-6-methoxybenzyl)piperidin-4-ylamino)quinazolin-2-ylamino)propylcarbamate]
1.4 | 92 |  |  | COc1cccc(N(C)C)c1CN1CCC(Nc2nc(NCCCN3CCCC3=O)nc3ccccc23)CC1 [Compound 89, 1-(3-(4-(1-(2-(Dimethylamino)-6-methoxybenzyl)piperidin-4-ylamino)quinazolin-2-ylamino)propyl)pyrrolidin-2-one]
 | 98 |  | 0.224 | COc1cccc(N(C)C)c1CN1CCC(Nc2nc(NC[C@H]3CCNC3)nc3ccccc23)CC1 [Compound 111, (S)—N-4-(1-(2-(Dimethylamino)-6-methoxybenzyl)piperidin-4-yl)-N2-(pyrrolidin-3-ylmethyl)quinazoline-2,4-diamine]
1.9 | 100 |  |  | COc1cccc(N(C)C)c1CN1CCC(Nc2nc(NCCC#N)nc3ccccc23)CC1 [Compound 100, 3-(4-(1-(2-(Dimethylamino)-6-methoxybenzyl)piperidin-4-ylamino)quinazolin-2-ylamino)propanenitrile]
 | 92 | 0.047 |  | COc1cc2nc(NCCc3nccs3)nc(NC3CCN(Cc4c(OCCN(C)C)cccc4N(C)C)CC3)c2cc1OC [Compound 209, N˜4˜-(1-{2-(Dimethylamino)-6-[2-(dimethylamino)ethoxy]benzyl}piperidin-4-yl)-6,7-dimethoxy-N˜2˜-[2-(1,3-thiazol-2-yl)ethyl]quinazoline-2,4-diamine]
4.9 | 93 |  |  | CCN(CC)CCCNc1nc(NC2CCN(Cc3ccccc3[N+](=O)[O-])CC2)c2cc(OC)c(OC)cc2n1 [Compound 65, N2-(3-(Diethylamino)propyl)-6,7-dimethoxy-N4-(1-(2-nitrobenzyl)piperidin-4-yl)quinazoline-2,4-diamine]
 | 75 | 0.978 |  | CN(C)CCCNc1nc(NC2CCN(Cc3ccccc3-n3cccc3)CC2)c2ccccc2n1 [Compound 130, N4-(1-(2-(1H-Pyrrol-1-yl)benzyl)piperidin-4-yl)-N2-(3-(dimethylamino)propyl)quinazoline-2,4-diamine]
 | 98 | 0.058 |  | COc1cc2nc(NCc3cnco3)nc(NC3CCN(Cc4c(OCCN(C)C)cccc4N(C)C)CC3)c2cc1OC [Compound 212, N˜4˜-(1-{2-(Dimethylamino)-6-[2-(dimethylamino)ethoxy]benzyl}piperidin-4-yl)-6,7-dimethoxy-N˜2˜-(1,3-oxazol-5-ylmethyl)quinazoline-2,4-diamine]
 | 94 | 0.116 |  | COc1cc2nc(NCCN)nc(NC3CCN(Cc4c(OCCN(C)C)cccc4N(C)C)CC3)c2cc1OC [Compound 180, N˜2˜-(2-Aminoethyl)-N˜4˜-(1-{2-(dimethylamino)-6-[2-(dimethylamino)ethoxy]benzyl}piperidin-4-yl)-6,7-dimethoxyquinazoline-2,4-diamine]

Structure (SMILES) | IC50 (values given in μM) [µM] | CXCR4 (% Inh) [%] | IC50 (values in nM) [µM] | IC50 (unit of the source corrected, heading: CXCR4 IC50, values given in μM) [µM]
COc1cccc(N(C)C)c1CN1CCC(Nc2nc(N3CC3)nc3ccccc23)CC1 [Compound 92, 2-(Aziridin-1-yl)-N-(1-(2-(dimethylamino)-6-methoxybenzyl)piperidin-4-yl)quinazolin-4-amine] | 2.1 | 75 |  | 
